What was measured:
SH-SY5Y-TrkA [1] = experiment: Differentiation of TrkA cells, live cell images at 72 hours; conditions: for Experimentally measured percentage of differentiated cells: SH-SY5Y-TrkA, ligand NGF; for Experiment (biological outcome): SY5Y-TrkA ± NGF
Procedure: SH-SY5Y cells stably expressing TrkA or TrkB receptors were stimulated with 100 ng/ml NGF or BDNF, respectively. Differentiation and proliferation were assessed 72 hours after growth factor treatment.
In FIGS. 35A-F, the live cell images are accompanied by bar plots showing the percentage of differentiated cells. The percentages were obtained by examining three images for each set of conditions, and counting the total number of cells and the number of differentiated cells.
FIG. 52 is a bar plot showing the percentage of differentiated cells for different treatments, measured by counting cells in images and calculating the ratio of differentiated cells to total cells.

SH-SY5Y-TrkB [2] = experiment: cSTAR analysis of RPPA perturbation data (STV dot product P, DPD output S), TrkB cells; assay type: cell-based, human; conditions: for Change in the DPD output ΔS / DPD output S: SH-SY5Y-TrkB, ligand BDNF, 45 minutes, calculated from RPPA data
Text: (§1) Thus, we use this dimensionality reduced STV for estimating the network effects and biological outcomes of experimental perturbations. For each perturbation we determine a perturbation vector that connects the centroids of the point clouds that have been obtained before and after the perturbation. This vector changes the cell phenotype when it pushes the centroid of the original point cloud across the plane that separates different cell states, stabilizes a cell state when moving the centroid away from the separation plane, or has no effect when it is (nearly) parallel to the separation plane.
(§2) These outcomes can be quantified by determining the dot product (P) of the perturbation vector and the dimensionality reduced STV.
TrkB cells were treated with the p90RSK inhibitor BI-D1870. Data points were acquired corresponding to 45 min 100 ng/ml GF stimulation, and these were projected into the first 3 principal components in order to calculate the point cloud centroids. For clarity, only the centroids are shown in FIG. 7, corresponding to: TrkA 45 minute NGF, TrkB 45 minute BDNF before perturbation, and the perturbed centroid TrkB RSKi 45 minute BDNF.
(§3) For a correct interpretation of perturbation data using the STV, we have to exclude the analytes that composed the modules of our core signaling network. Accordingly, the dimensionality of the molecular dataspace where the STV and perturbation vectors are calculated is reduced from 115 to 70, due to 45 analytes from Table S1A, related to the five proteins flagged in Table S3, being allocated to core network components, leaving the remaining 70 analytes to defined the reduced dimensionality dataspace.
(§4) Let A with the radius-vector {right arrow over (x)}A be the centroid of the point cloud Ai, corresponding to the unperturbed state 1. Let Apert with the radius-vector {right arrow over (x)}Apert be the centroid of the point cloud (Ai^pert), corresponding to the perturbed state 1. Then the perturbation vector is defined as,
(§5) The projection P of the perturbation vector {right arrow over (P)} on the STV ({right arrow over (s)}) is obtained as a dot product of these two vectors,
(§6) In the molecular dataspace, we consider the STV as a vector {right arrow over (s)} of unit length directed from a centroid of a differentiation TrkA point cloud to a centroid of a proliferation TrkB point cloud. We now define the output of the DPD module as the S value,
(§7) In this definition, the direction of the vector {right arrow over (n)}, which is orthogonal to the separation hyperplane, […]. Then, the DPD value (S) is positive for proliferation TrkB points and negative for differentiation TrkA points.
(§8) Using the STV ({right arrow over (s)}), a perturbation vector ({right arrow over (P)}) and the unit length vector ({right arrow over (n)}) orthogonal to the separation hyperplane, we can calculate how the DPD value changes following each inhibitor perturbation. The DPD values, determined for the centroids of unperturbed (A) and perturbed (Apert) states, S and Spert, respectively, are the following (see Eq. 9),
(§9) In order to reconstruct the posterior network, we used the drug perturbations described in Table 1, measuring 10 and 45 minute timepoints in TrkA and TrkB cells stimulated with NGF or BDNF, respectively.

SH-SY5Y-TrkB [3] = experiment: Differentiation of TrkB cells, live cell images at 72 hours; assay type: cell-based, human; conditions: for Experimentally measured percentage of differentiated cells: SH-SY5Y-TrkB, ligand BDNF; for Experiment (biological outcome): SY5Y-TrkB ± BDNF
Procedure: FIG. 45 is a live cell image of TrkB cells stimulated with BDNF taken at 72 hours. FIG. 46 is a live cell image of BDNF-stimulated TrkB cells treated with 0.2 μM Trametinib taken at 72 hours. FIG. 47 is a live cell image of BDNF-stimulated TrkB cells treated with 2.5 μM Gefitinib taken at 72 hours. […] FIG. 49 is an additional experiment, being a live cell image of BDNF-stimulated TrkB cells treated with a combination of 2.5 μM Gefitinib and 0.05 μM Trametinib taken at 72 hours.

SH-SY5Y-TrkA [4] = experiment: cSTAR analysis of RPPA perturbation data (STV dot product P, DPD output S), TrkA cells; assay type: cell-based, human; conditions: ligand NGF, 45 minutes, calculated from RPPA data
Text: as §1, §2, §3, §4, §5, §6, §7, §8, §9

TrkA cells = experiment: RPPA phosphoproteomics (raw fluorescent intensity) in TrkA cells stimulated with ligand and treated with inhibitors; assay type: cell-based, human
Text: (§10) Experiments used a custom made RPPA with 115 validated antibodies listed in Table S1A below to interrogate the activities of signaling pathways involved in TrkA/B signaling (Schramm et al., 2005), including MAPK (RAS-ERK, JNK, p38), PI3 kinase (AKT, mTORC1/2), JAK-STAT, PLCγ-PKC, TGFβ-SMAD, Wnt, cyclic-AMP, cell cycle (CDK1, Cyclins, Rb, p53, p21^WAF), apoptosis (BAX, BCL2, BCLx, Caspase 3), transcription factor (MYC, NFκB, JUN), and tyrosine kinase (SRC, EGFR, PDGFR, IGFR) pathways. In addition to the 115 antibodies, three controls are also included, Mouse 1, 2 and 3.
(§11) For each antibody, RPPA phosphoproteomics data was collected, measured as raw fluorescent intensity values in TrkA and TrkB cells stimulated with a ligand and treated with different inhibitors. A sample of the data is reproduced in Table S1B below, showing the measured fluorescent intensity values for a small sample of antibodies and a small sample of treatment and stimulation conditions. The full data set, including replicated experiments, contains 118 rows (one per antibody) and 144 columns (each containing 118 measurements and relating to an experimental set of treatment and stimulation conditions, which include replicated experiments).
(§12) In terms of the computational approach to processing the acquired data, each analyte level was first normalized on the GAPDH level, and then on the value of the same analyte in the absence of inhibitors and ligand stimulation to obtain fold-changes.
(§13) FIGS. 25-30 show the simulated time courses with the experimental data points (dots with error bars) imposed on the model predictions (curves) for a number of inhibitors: S6K inhibitor (1 μM) FIG. 25A-F; TRK inhibitor (5 μM) FIG. 26A-F; MEK inhibitor (0.5 μM) FIG. 27 A-F; AKT inhibitor (1 μM) FIG. 28A-F; JNK inhibitor (1 μM) FIG. 29A-F; and RSK inhibitor (1 μM) FIG. 30A-F. The TrkA and TrkB cells were treated with the respective inhibitor, and stimulated with 100 ng/ml NGF and BDNF, respectively. Dashed lines are the time courses in the absence of inhibitor. Error bars represent SEM and are calculated using 3 biological replicates.

TrkB cells = experiment: RPPA phosphoproteomics (raw fluorescent intensity) in TrkB cells stimulated with ligand and treated with inhibitors; assay type: cell-based, human; conditions: No GF stimulation
Text: as §10, §11, §12, §13

CC[n+]1c(/C=C/N(C)c2ccccc2)n(-c2ccccc2)c2ccc(-c3nc4ccccc4s3)cc21.[I-] [AKT inhibitor, AKT inhibitor IV]
Experimentally measured percentage of differentiated cells (SH-SY5Y-TrkA [1]; 72 hours): 62% ± 3%
Change in the DPD output ΔS (SH-SY5Y-TrkB [2]): −1.5 ± 1.0
DPD output S (SH-SY5Y-TrkB [2]): 4.3 ± 0.8
Experimentally measured percentage of differentiated cells (SH-SY5Y-TrkB [3]; 72 hours): 34.3% ± 0.8%
Change in the DPD output ΔS (SH-SY5Y-TrkA [4]): −1.3 ± 0.6
DPD output S (SH-SY5Y-TrkA [4]): −3.6 ± 0.5

COc1cc2ncnc(Nc3ccc(F)c(Cl)c3)c2cc1OCCCN1CCOCC1 [Gefitinib]
differentiation of TrkB cells (live cell images) (SH-SY5Y-TrkB [3]; BDNF-stimulated, 72 hours, combination 1.25 μM Gefitinib + 0.1 μM Trametinib or 2.5 μM + 0.05 μM, alone 2.5 μM Gefitinib, 0.2 μM Trametinib): not with either inhibitor applied separately

Cc1cc(NC(=O)c2cccc(NC(=O)/C=C/CN(C)C)c2)ccc1Nc1nccc(-c2cccnc2)n1 [JNK inhibitor, JNK-IN-8]
Experimentally measured percentage of differentiated cells (SH-SY5Y-TrkA [1]; 72 hours): 45% ± 5%
Experiment (biological outcome) (SH-SY5Y-TrkA [1]): No effect
Change in the DPD output ΔS (SH-SY5Y-TrkB [2]): 0.23 ± 0.82
DPD output S (SH-SY5Y-TrkB [2]): 5.95 ± 0.56
Experimentally measured percentage of differentiated cells (SH-SY5Y-TrkB [3]; 72 hours): 25% ± 4%
Experiment (biological outcome) (SH-SY5Y-TrkB [3]): No effect
Change in the DPD output ΔS (SH-SY5Y-TrkA [4]): −0.07 ± 0.75
DPD output S (SH-SY5Y-TrkA [4]): −2.4 ± 0.7

CC(=O)Nc1cccc(-n2c(=O)n(C3CC3)c(=O)c3c(Nc4ccc(I)cc4F)n(C)c(=O)c(C)c32)c1 [MEK inhibitor, Trametinib]
Bad P Ser112 raw fluorescent intensity (RPPA) (TrkA cells; 45 min NGF stimulation): 0.2853
Bad P Ser136 raw fluorescent intensity (RPPA) (TrkA cells; 45 min NGF stimulation): 0.07024
Bak raw fluorescent intensity (RPPA) (TrkA cells; 45 min NGF stimulation): 0.0709
CrkL P Tyr207 raw fluorescent intensity (RPPA) (TrkA cells; 45 min NGF stimulation): 0.1174
HSP27 (HSPB1) P Ser78 raw fluorescent intensity (RPPA) (TrkA cells; 45 min NGF stimulation): 0.04349
JAK1 raw fluorescent intensity (RPPA) (TrkA cells; 45 min NGF stimulation): 0.0516
Experimentally measured percentage of differentiated cells (SH-SY5Y-TrkA [1]; 72 hours): 48% ± 3%
Experiment (biological outcome) (SH-SY5Y-TrkA [1]): No effect
Change in the DPD output ΔS (SH-SY5Y-TrkB [2]): 0.35 ± 0.72
DPD output S (SH-SY5Y-TrkB [2]): 6.1 ± 0.4
Experimentally measured percentage of differentiated cells (SH-SY5Y-TrkB [3]; 72 hours): 20% ± 1%
Change in the DPD output ΔS (SH-SY5Y-TrkA [4]): −0.7 ± 0.4
DPD output S (SH-SY5Y-TrkA [4]): −3.0 ± 0.3

Cn1cc(-c2ccc(F)c(C(F)(F)F)c2)nc1C1CCN(c2ncnc3[nH]ncc23)CC1 [p70S6K inhibitor, LY2584702]
Bad P Ser112 raw fluorescent intensity (RPPA) (TrkA cells; 10 min NGF stimulation): 0.1181
Bad P Ser136 raw fluorescent intensity (RPPA) (TrkA cells; 10 min NGF stimulation): 0.109
Bak raw fluorescent intensity (RPPA) (TrkA cells; 10 min NGF stimulation): 0.211
CrkL P Tyr207 raw fluorescent intensity (RPPA) (TrkA cells; 10 min NGF stimulation): 0.2814
HSP27 (HSPB1) P Ser78 raw fluorescent intensity (RPPA) (TrkA cells; 10 min NGF stimulation): 0.2939
JAK1 raw fluorescent intensity (RPPA) (TrkA cells; 10 min NGF stimulation): 0.1005
Experimentally measured percentage of differentiated cells (SH-SY5Y-TrkA [1]; 72 hours): 41% ± 5%
Change in the DPD output ΔS (SH-SY5Y-TrkB [2]): −7.8 ± 0.6
DPD output S (SH-SY5Y-TrkB [2]): −2.10 ± 0.05
Experimentally measured percentage of differentiated cells (SH-SY5Y-TrkB [3]; 72 hours): 45% ± 3%
Change in the DPD output ΔS (SH-SY5Y-TrkA [4]): −1.5 ± 0.4
DPD output S (SH-SY5Y-TrkA [4]): −3.8 ± 0.3

CC(C)CCN1c2nc(Nc3cc(F)c(O)c(F)c3)ncc2N(C)C(=O)C1C (stereo not drawn) [p90RSK inhibitor, BI-D1870]
Bad P Ser112 raw fluorescent intensity (RPPA) (TrkB cells): 0.103
Bad P Ser136 raw fluorescent intensity (RPPA) (TrkB cells): 0.07225
Bak raw fluorescent intensity (RPPA) (TrkB cells): 0.1888
CrkL P Tyr207 raw fluorescent intensity (RPPA) (TrkB cells): 0.2852
HSP27 (HSPB1) P Ser78 raw fluorescent intensity (RPPA) (TrkB cells): 0.3221
JAK1 raw fluorescent intensity (RPPA) (TrkB cells): 0.1064
Experimentally measured percentage of differentiated cells (SH-SY5Y-TrkA [1]; 72 hours): 37.0% ± 2.4%
Experiment (biological outcome) (SH-SY5Y-TrkA [1]): decreasing differentiation
Change in the DPD output ΔS (SH-SY5Y-TrkB [2]): −1.7 ± 0.6
DPD output S (SH-SY5Y-TrkB [2]): 4.0 ± 0.2
Perturbation vector component collinear with the STV (SH-SY5Y-TrkB [2]; TrkB cells, 45 min 100 ng/ml GF stimulation): moves the proliferation state towards differentiation
Experimentally measured percentage of differentiated cells (SH-SY5Y-TrkB [3]; 72 hours): 29% ± 4%
Experiment (biological outcome) (SH-SY5Y-TrkB [3]): weakly increasing differentiation
Change in the DPD output ΔS (SH-SY5Y-TrkA [4]): 1.8 ± 0.3
DPD output S (SH-SY5Y-TrkA [4]): −0.54 ± 0.13

NGF: TrkA ligand, growth factor
cell fate after growth factor treatment (SH-SY5Y-TrkA [1]; TrkA cells, 100 ng/ml, 72 hours): differentiation

B1: BDNF: TrkB ligand, growth factor (protein, UniProt P23560 19-247, looked up)
Neurotrophic factor BDNF …: APMKEANIRGQGGLAYPGVRTHGTLESVNGPKAGSRGLTSLADTFEHVIEELLDEDQKVRPNEENNKDADLYTSRVMLSSQVPLEPPLLFLLEEYKNYLDAANMSMRVRRHSDPARRGELSVCDSISEWVTAADKKTAVDMSGGTVTVLEKVPVSKGQLKQYFYETKCNPMGYTKEGCRGIDKRHWNSQCRTTQSYVRALTMDSKKRIGWRFIRIDTSCVCTLTIKRGR
cell fate after growth factor treatment (SH-SY5Y-TrkB [3]; TrkB cells, 100 ng/ml, 72 hours): proliferation
